# Values quoted from earlier work in PMC4460250, “Systems Pharmacology Dissecting Holistic Medicine for Treatment of Complex Diseases: An Example Using Cardiocerebrovascular Diseases Treated by TCM” (Evidence-based Complementary and Alternative Medicine : eCAM, 2015).
# Where two headings read alike, the source gives them in different places.
# Conditions: cited from earlier work
SMILES,HIA(Human Intestinal Absorption) (in vivo),"HIA(Human Intestinal Absorption) (human, PreHIA data set, value given as fraction)"
CC[C@@H](CO)NC(=O)[C@@H]1C=C2c3cccc4[nH]cc(c34)C[C@H]2N(C)C1 [Methylergonovine],1,–
C[C@H]1C[C@@H]2[C@H]([C@@H](O)C[C@@]3(C)[C@H]2CC[C@]3(O)C(=O)CO)[C@@]2(C)C=CC(=O)C=C12 [Methylprednisolone],0.82,–
CC(C)(C(=O)c1cccnc1)c1cccnc1 [Metyrapone],0.8,–
CC1(C)S[C@@H]2[C@H](NC(=O)[C@H](NC(=O)N3CCN(S(C)(=O)=O)C3=O)c3ccccc3)C(=O)N2[C@H]1C(=O)O [Mezlocillin],0.01,–
CN1CCN2c3ccccc3Cc3ccccc3C2C1 (stereo not shown) [Mianserin],0.7,–
COCC(=O)O[C@]1(CCN(C)CCCc2nc3ccccc3[nH]2)CCc2cc(F)ccc2[C@@H]1C(C)C [Mibefradil],0.69,–
CC#C[C@]1(O)CC[C@H]2[C@@H]3CCC4=CC(=O)CCC4=C3[C@@H](c3ccc(N(C)C)cc3)C[C@@]21C [Mifepristone],–,0.9
Cc1[nH]c(=O)c(C#N)cc1-c1ccncc1 [Milrinone],0.83,–
O=C(NCCN1CCOCC1)c1ccc(Cl)cc1 [Moclobemide],0.88,–
CCOC(=O)Nc1ccc2c(c1)N(C(=O)CCN1CCOCC1)c1ccccc1S2 [Moricizine],0.88,–
COc1nc(C)nc(Cl)c1N=C1NCCN1 [Moxonidine],0.88,–
CC(C)(C)NCC(O)COc1cccc2c1CC(O)C(O)C2 (stereo not shown) [Nadolol],0.57,–
O=C1CC[C@@]2(O)[C@H]3Cc4ccc(O)c5c4[C@@]2(CCN3CC2CC2)[C@H]1O5 [Naltrexone],0.95,–
CCc1nn(CCCN2CCN(c3cccc(Cl)c3)CC2)c(=O)n1CCOc1ccccc1 [Nefazodone],1,–
CC#Cc1cn([C@@H]2O[C@H](CO)[C@@H](O)[C@@H]2O)c(=O)[nH]c1=O [Netivudine],0.28,–
O=C(NCCO[N+](=O)[O-])c1cccnc1 [Nicorandil],1,–
O=C(O)c1cccnc1 [Nicotinic_acid],0.88,–
CC1(C)NC(=O)N(c2ccc([N+](=O)[O-])c(C(F)(F)F)c2)C1=O [Nilutamide],1,–
O=C1CN(/N=C/c2ccc([N+](=O)[O-])o2)C(=O)N1 [Nitrofurantoin],0.95,–
CNC(=C[N+](=O)[O-])NCCSCc1csc(CN(C)C)n1 [Nizatidine],0.9,–

SMILES,HIA(Human Intestinal Absorption) (in vivo),"HIA(Human Intestinal Absorption) (human, PreHIA data set, value given as fraction)"
CNCCC=C1c2ccccc2CCc2ccccc21 [Nortriptyline],1,–
O=C(O)c1cc(/N=N/c2ccc(O)c(C(=O)O)c2)ccc1O [Olsalazine],0.24,–
COc1ccc2[nH]c([S+]([O-])Cc3ncc(C)c(OC)c3C)nc2c1 (stereo not shown) [Omeprazole],0.8,–
O=C(O)CCc1nc(-c2ccccc2)c(-c2ccccc2)o1 [Oxaprozin],0.98,–
CN(C)[C@@H]1C(O)=C(C(N)=O)C(=O)[C@@]2(O)C(O)=C3C(=O)c4c(O)cccc4[C@@](C)(O)[C@H]3[C@H](O)[C@@H]12 [Oxytetracycline],0.58,–
NCCC(O)(P(=O)(O)O)P(=O)(O)O [Pamidronic_acid],0.05,–
CC(=O)Nc1ccc(O)cc1 [Paracetamol],0.8,–
Fc1ccc([C@@H]2CCNC[C@H]2COc2ccc3c(c2)OCO3)cc1 [Paroxetine],1,–
Cc1nc(=O)c(C#N)c(NCc2cccnc2)[nH]1 [Pelrinone],0.98,–
CCC[C@H](N[C@@H](C)C(=O)N1[C@H](C(=O)O)C[C@@H]2CCCC[C@@H]21)C(=O)OCC [Perindopril],0.95,–
Nc1ccc(/N=N/c2ccccc2)c(N)n1 [Phenazopyridine],0.9,–
O=C1c2ccccc2C(=O)C1c1ccccc1 [Phenindione],1,–
CCC1(c2ccccc2)C(=O)NC(=O)NC1=O [Phenobarbital],1,–
O=C1NC(=O)C(c2ccccc2)(c2ccccc2)N1 [Phenytoin],0.9,–
O=C(O)c1ccccc1C(=O)Nc1ccc(S(=O)(=O)Nc2nccs2)cc1 [Phthalylsulfathiazole],0.05,–
NS(=O)(=O)c1cc(C(=O)O)cc(N2CCCC2)c1Oc1ccccc1 [Piretanide],0.85,–
CN1C(C(=O)Nc2ccccn2)=C(O)c2ccccc2S1(=O)=O [Piroxicam],1,–
CN1CCC(=C2c3ccccc3CCc3sccc32)CC1 [Pizotyline],0.8,–
C[n+]1ccccc1/C=N/O [Pralidoxime],0.3,–
CC[C@H](C)C(=O)O[C@H]1C[C@H](O)C=C2C=C[C@H](C)[C@H](CC[C@@H](O)C[C@@H](O)CC(=O)O)[C@H]21 [Pravastatin],0.34,–
